The record followed here is article PMC11570809, “Novel N-phenyl-2-(aniline) benzamide hydrochloride salt development for colon cancer therapy” (Frontiers in Pharmacology, 2024).

In one data set the test system is HT29 cells. Kind of data set: Plane colony assay, HT29. Particulars: HT29, 1, 2 and 4 µM. The format is cell-based, human. As for the experimental part:
In 6-well plates, HT29 cells and RKO cells (1 × 10^3 cells/well) were inoculated and maintained overnight. Then treated with N53 and N53·HCl at different concentrations for 24 h and with normal culture-medium for 7 days respectively. After that, removed supernatant and fixed by 4% paraformaldehyde for 15 min. Then fixed cells were stained with 1% crystal violet dye for 15 min and rinsed with water. Finally, colonies were counted according to rules that nonoverlapping groups of at least 50 cells. The data are all derived from three parallel experiments (n = 3) and expressed as mean ± SD.

For the next data set, the system named is PC-3. Kind of data set: MTT anti-proliferation assay, PC-3. Particulars: Homo sapiens, PC-3, 72 h, read-out: IC50 ± SD PC-3. In kind it is cell-based. (In general: Tetrazolium assays rely on reduction of a dye to a coloured formazan, in cell work by metabolically active cells.)
Data set [1] in a line: Acute toxicity study (OECD guidelines), single dose by gavage. In kind it is in vivo. As for the experimental part: Acute toxicity studies were conducted for N53·HCl following OECD guidelines. Sixteen Kunming mice were purchased from SPF (Beijing) Biotechnology Co., Ltd. The mice were randomly divided into two groups (n = 8, 4 female and 4 male mice per group). The control group was treated with saline containing 10% DMSO, 10% Solutol HS -15, and the experimental group was treated with N53·HCl at a dose of 1,000 mg/kg (suspended in saline containing 10% DMSO and 10% Solutol HS -15).
All treatments were administered with a single dose by gavage. […] It can be seen that N53·HCl is a safe agent with an oral LD50 of more than 1,000 mg/kg in mice.

A short description of data set [2]: Hygroscopicity and stability of the salt forms. The note with it: solid salt. In kind it is physicochemical.
The test system of another data set is HT29. Kind of data set: MTT anti-proliferation assay, HT29. The format is cell-based, human. The note with it: 72 h, read-out: IC50 ± SD HT29. As for the experimental part:
The anti-proliferation activities of synthesized compounds to colon cancer cell lines were measured by the MTT (3-[4,5-dimethyl-2-thiazolyl]-2,5-diphenyl-2H-tet razolium bromide) assay. First, the cell suspension was prepared by trypsin and the corresponding medium, cells were diluted to 5 × 10^5 cells/mL, and 96-well plates were added 200 μL per well. The plates were maintained at 37°C in a humidified atmosphere containing 5% CO2 overnight. Then compounds at gradient concentrations were added to cells in the logarithmic phase to make the final concentration at 0.5, 1, 2, 4, 8, 16, and 32 μM. The cells were treated with tested compounds for 72 h, and the growth curve assay was tested in 24 h. When the time was up, 20 μL of MTT solution (5 mg/mL in PBS) was added into each well to incubate for 4 h at 37°C. Then the supernatant liquid was removed, 150 μL DMSO was added into every well to dissolve formazan crystals and read the absorbance at 570 nm by Spark microplate spectrophotometer (Tecan, Swiss). The IC50 values were analyzed by IBM SPASS Statistics 25.0 software. The data are all derived from three parallel experiments (n = 3) and expressed as mean ± SD.

Each structure is given as a SMILES string. Entries after “also recorded” stand apart in the source; their conditions may differ. Counter-ions that a name gives are not always drawn.

Broadly, the IC50 is the concentration that gives 50% inhibition. Broadly, the LD50 is the dose expected to kill half of the subjects tested. Low values mean greater toxicity, high ones lower toxicity. As for `Cc1c(Cl)cccc1Nc1ccccc1C(=O)Nc1ccc(N2CCN(C)CC2)cc1` [N53·HCl, 4-(4-(2-((3-chloro-2-methylphenyl)amino)ben-zamido)phenyl)-1-methylpiperazin-1-ium], in the data set with HT29 cells, the “Number of cell clones formed” value was “decreased significantly and dose-dependently”. Further, in the data set with PC-3, the IC50 stood at 13.7 ± 0.8 µM. In data set [1] (1,000 mg/kg single dose by gavage, after 14 days), the “Gross and histological (H&E) examination of major organs (heart, liver, kidney, spleen)” value was “no obvious toxic effects; also recorded: no significant abnormalities”. In addition, in data set [1] (1,000 mg/kg single dose by gavage, monitored 14 days), the “Symptoms and body weight compared to vehicle-treated control” value is “no significant changes in symptoms and body weight”. Further, the LD50 at 14 days in data set [1] (both sexes, Kunming, mouse, in vivo, po) is > 1000 mg/kg. Besides, in data set [2], the Hygroscopicity result is recorded as “low in hygroscopicity” and the Stability result is “relatively stable under various conditions”. Further, the 50% inhibitory concentration (IC50) with HT29 came to 2.95 ± 0.08 µM.
